Measurements as given in PubChem BioAssay (NCI).
Several values for one entry are separate records, joined by “and”; a condition that tells them apart may be missing. Equal entries are not always repeated.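 Each compound was tested at five concentrations against cells in 96-well plates for 48 hours. GI50: concentration for 50% inhibition of growth. TGI: concentration producing complete growth inhibition.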

Assays:
Test in all cases: NCI-60 cell line screen, 48 h
[1] = tested on: TK-10 renal
[2] = tested on: MCF7 breast
[3] = tested on: SN12C renal
[4] = tested on: EKVX NSCLC
[5] = tested on: KM12 colon
[6] = tested on: M14 melanoma
[7] = tested on: U251 CNS
[8] = tested on: SF-268 CNS
[9] = tested on: MDA-MB-231 breast
[10] = tested on: OVCAR-4 ovarian

Compound | TGI [1] | TGI [2] | TGI [3] | TGI [4] | TGI [5] | TGI [6] | TGI [7] | TGI [8] | TGI [9] | TGI [10] | GI50 [1] | GI50 [2] | GI50 [3] | GI50 [10] | GI50 [4] | GI50 [5] | GI50 [6] | GI50 [9] | GI50 [7]
COc1cc(CNc2nc3cc(C(F)(F)F)ccc3nc2C(=O)O)cc(OC)c1OC | 39.7 µM | 49.9 µM | 30.2 µM | 57.1 µM | 78.2 µM | 35.7 µM | 31.2 µM | > 100 µM | – | – | – | – | – | – | – | – | – | – | –
Cc1cc2nc(N)n[n+]([O-])c2cc1C | > 100 µM | > 100 µM | > 100 µM | > 100 µM | > 100 µM | > 100 µM | > 100 µM | > 100 µM | > 100 µM | – | – | – | – | – | – | – | – | – | –
CCOC(=O)C(NC(=O)Nc1ccccc1)(Nc1cccc(Cl)c1)C(F)(F)F (configuration not stated) | > 100 µM | > 100 µM | > 100 µM | > 100 µM | > 100 µM | > 100 µM | > 100 µM | > 100 µM | > 100 µM | – | – | – | – | – | – | – | – | – | –
O=C(O)CC(Cc1ccccc1)C(=O)O (configuration not stated) | > 100 µM | > 100 µM | > 100 µM | > 100 µM | > 100 µM | > 100 µM | > 100 µM | > 100 µM | – | > 100 µM | – | – | – | – | – | – | – | – | –
C(=C/c1ccc2nc(-c3ccc(/C=C/C=N/NC4=NCCCN4)cc3)cn2c1)/C=N/NC1=NCCCN1 | > 100 µM | – | > 100 µM | 35.7 µM | > 100 µM | > 100 µM | > 100 µM | 54.7 µM | 28.5 µM | > 100 µM | – | – | – | – | – | – | – | – | –
COC(=O)c1ccc2c(c1)CCN2C(=O)c1cc2c(cc1Br)OCO2 | 37.6 µM and > 100 µM | 50 µM and > 100 µM | 48.3 µM and > 100 µM | 50 µM and > 100 µM | 50 µM and > 100 µM | 6.9 µM and 40.4 µM | 5.12 µM and 20.6 µM | 50 µM | 50 µM and > 100 µM | 50 µM and > 100 µM | 27.1 µM | 0.567 µM | 3.21 µM | 4.88 µM | 3.77 µM | 0.532 µM | 0.652 µM | 2 µM | 0.512 µM
Cc1cc(S(=O)(=O)Nc2nc(N)n(-c3ccccc3)n2)c(S)cc1Cl | > 100 µM | > 100 µM | > 100 µM | > 100 µM | > 100 µM | > 100 µM | > 100 µM | > 100 µM | > 100 µM | > 100 µM | – | – | – | – | – | – | – | – | –
O=C(O)c1cc(/C=C/c2ccc(O)c(O)c2)ccc1O | > 100 µM | 51.4 µM | > 100 µM | > 100 µM | > 100 µM | > 100 µM | > 100 µM | > 100 µM | > 100 µM | > 100 µM | – | – | – | – | – | – | – | – | –
C/C(=C/CC[C@](C)(OC1OC(CO)C(O)C(O)C1OC1OC(C)C(O)C(O)C1O)[C@H]1CC[C@]2(C)[C@@H]1CC[C@@H]1[C@@]3(C)CC[C@H](O)C(C)(C)[C@@H]3C[C@H](O)[C@]12C)CO (some centres not stated) | > 100 µM | > 100 µM | > 100 µM | > 100 µM | > 100 µM | > 100 µM | > 100 µM | > 100 µM | > 100 µM | > 100 µM | – | – | – | – | – | – | – | – | –
CCNc1nc2ccccc2nc1NCC | > 100 µM | > 100 µM | > 100 µM | > 100 µM | > 100 µM | > 100 µM | > 100 µM | > 100 µM | > 100 µM | – | – | – | – | – | – | – | – | – | –
